Data from patent US8673281B2 (BioCis Pharma Oy, priority 2003, dated 2014).
Entries after “also recorded” stand apart in the source; their conditions may differ.

What was measured:
[1] = tested on: neutrophils; assay: Monitoring of intracellular pH (BCECF flow cytometry, nigericin calibration); assay type: cell-based, human; conditions: for effect on intracellular BCECF signal: extracellular pH adjusted to 7.4
Method: Intracellular pH levels in neutrophils were monitored with flow cytometry utilizing a pH-sensitive fluorescent dye 2′,7′-bis-(2-carboxyethyl)-5-(and-6)-carboxyfluorescein (BCECF, acetoxymethyl ester; Molecular Probes, Leiden, The Netherlands). About 30×10^6 cells were incubated in 10 ml HBSS, pH 7.4, containing 0.35 μM BCECF at 25° C. for 30 min, washed twice in HBSS, and resuspended in 1 ml of 154 mM NaCl. Aliquot (235 μl) of the incubation medium with known UCA concentrations and checked pH was applied to the cells (4.5×10^5 cells/15 μl NaCl) in polystyrene tubes, incubated at 25° C. for about 20 min, and analyzed in a flow cytometer.
Calibration of intracellular pH was performed in situ using the K^+/H^+ ionophore nigericin. An excess of pH calibration buffers (10 mM Pipes, 131 mM KCl, pH adjusted to 6.10, 6.50, 6.80, 7.10, 7.40, and 7.60 or 7.70) and 10 μM nigericin was added to the BCECF-labelled cells in 154 mM NaCl. The cells were kept at room temperature and analysed by flow cytometry within 45 min. Cells incubated with or without UCA were analysed for intracellular pH simultaneously. The pH was adjusted to the same values as those in the calibration buffers. Intracellular pH was determined from a BCECF fluorescence intensity calibration curve.

[2] = tested on: neutrophil cytosol; assay: UCA metabolism in neutrophil cytosol (TCA precipitation, scintillation counting, HPLC); assay type: in vitro ADME, human
Method: An aminopropyl stationary phase column Lichrosorb NH2, Hibar RT, 250×4 mm, 5 μm (Merck, Darmstadt, Germany) was used. The eluent was a 50% (v/v) mixture of acetonitrile and a solution of 2% (v/v) acetic acid and 0.5% (w/v) ammonium acetate in water (pH ca. 5). The isomers were detected at 268 nm, and the retention times were Tr(cis) 3.7 min and Tr(trans) 5.4 min.
Samples were mixed with OptiPhase HiSafe 2 scintillation liquid (EG&G Wallac, Turku, Finland) and [^14C]UCA radioactivity measured in RackBeta 1214 scintillation counter (EG&G Wallac). The counting efficiency was 96.7%±0.12% (mean±SEM, n=48).
Next, we examined whether the [^14C]UCA in the cytosol was metabolized by neutrophils after the uptake by determining how much of the radioactive label was associated with intact UCA. This was carried out by precipitating the cytosolic proteins of [^14C]UCA-labeled neutrophils with 10% trichloracetic acid (TCA) on ice overnight. The amount of radioactive label was then measured both in the precipitate and in the protein-free supernatant by scintillation counting, and the content of intact UCA in the supernatant by HPLC.

[3] = Protonation state calculated with the Henderson-Hasselbalch Equation; conditions: pH 6.5
Excerpt: It can be hypothesized that the ability of UCA to acidify cytosol in living cells depends on two major parameters: the pH of the extracellular space and the initial pH of the cytosol. Because UCA is found mainly in the skin, one should consider these two parameters in the context of the physiological environment. It is well known that the human skin has an acid mantle with a surficial pH around 4-6. When the stratum corneum is stripped layer by layer, the pH increases gradually and, after total removal of the stratum corneum, the pH in the remaining epidermis is about 6.9 (Öhman & Vahlquist, 1994). In deeper layers, the almost neutral pH of the interior body is reached. A recent analysis provides evidence that UCA is the major pH-regulating factor in the human stratum corneum (Krien & Kermici 2000). The majority of UCA resides in the stratum corneum; however, a significant amount of UCA diffuses into and evidently also through the (epi)dermis, because elevated levels of cis-UCA can be detected in the urine within 1-4 h following total-body UVB exposure (Kammayer et al. 1997). […] In contrast, at a pH below the imidazolyl pKa's, UCA would be mainly in the protonated form capable of promoting cytosolic acidification upon cell entry. […] To provide experimental support for these hypotheses, we measured the change in cytosolic pH in UCA-treated cells. […]

[4] = tested on: neutrophils; assay: Respiratory burst activity, opsonized zymosan-induced chemiluminescence; assay type: cell-based, human; conditions: 3 mM UCA
Method: The respiratory burst activity was used as a measure of neutrophil function. The UCA isomers were tested in a chemiluminescence assay with opsonized zymosan as described (Kivistö et al. 1996). The peak values were recorded.
To examine how the cytosol-acidifying effect of UCA correlates with the previously reported inhibition of neutrophil respiratory burst activity, we measured the effect of 3 mM UCA on opsonized zymosan-induced chemiluminescence by the same batch of neutrophils and in the same experimental conditions described above, i.e. when the pH of the test solution was adjusted back to its initial level after UCA addition. […] In the same conditions, cis-UCA suppressed the respiratory burst activity by 15%±8.4% and 44%±1.3%, respectively. […] The corresponding inhibitions for cis-UCA were 41%±10% at pH 6.60±0.02 (nominal pH 7.4) and 48%±1.6% at pH 6.33±0.07 (nominal pH 6.5).

[5] = cited from earlier work; for imidazolyl pKa: Roberts et al. 1982, Krien & Kermici 2000
[6] = tested on: histamine receptors; conditions: Laihia, 1998; cited from earlier work
[7] = pH effect of UCA isomers on incubation buffers; assay type: physicochemical; conditions: for pH of test solution after UCA supplementation: 3 mM UCA, unadjusted; for effect on pH of HBSS buffer: HBSS adjusted to pH 6.5 prior to UCA addition
Excerpt: As such, UCA resembles small ions (e.g., K^+, Na^+, H^+, […]) which enter the cell and modulate cell functions by altering the physico-chemical micro-environment (pH, ion potential, ion strength) of the cytosol. Therefore, we hypothesized that the high levels of intact UCA may provoke cellular changes simply due to its passive presence in the cytosol as an acid. […] Such a possibility was approached by testing the effect of UCA on pH first in a buffer solution and then in intact cells. […]

[8] = 3 mM UCA, extracellular pH 6.1-7.7, effect below pH 7
[9] = pH left unadjusted, nominal pH 6.5
[10] = pH left unadjusted, nominal pH 7.4

Structure (SMILES) | effect on intracellular pH (nigericin calibration) ([1]; 0.3 mM UCA, same pH range) | effect on intracellular pH (nigericin calibration) [1, 8] | effect on intracellular BCECF signal ([1]; 3 mM UCA) | recovery of [14C]UCA activity in protein-free supernatant ([2]; 10% TCA precipitation of cytosolic proteins, cis n=9, trans n=4) | fraction in protonated state [3] | inhibition of respiratory burst chemiluminescence ([4]; pH adjusted back to 6.5, n=3) | inhibition of respiratory burst chemiluminescence ([4]; pH adjusted back to 7.4) | inhibition of respiratory burst chemiluminescence [4, 9] | inhibition of respiratory burst chemiluminescence [4, 10] | pKa of the carboxyl group ([5]; Roberts 1982) | imidazolyl pKa [5] | binding to histamine receptors [6] | pH of test solution after UCA supplementation ([7]; nominal pH 6.5) | pH of test solution after UCA supplementation ([7]; nominal pH 7.4) | effect on pH of HBSS buffer [7] | recovery of [14C]UCA activity in protein-free supernatant ([2]; human) | fraction in deprotonated state [3] [%]
O=C(O)/C=C\c1c[nH]cn1 [cis-UCA, cis-urocanic acid] | much smaller effect | lowers the intracellular pH | no significant effect | 102%±3.9% | over 70% | 44%±1.3% | 15%±8.4% | 48%±1.6% | 41%±10% | ~3.3 | ~7.0 | does not directly bind | 6.33±0.07 | 6.60±0.02 | almost no effect |  | 
O=C(O)C=Cc1c[nH]cn1 [trans-UCA, 3-(1H-imidazol-4-yl)-2-propenoic acid, reference compound] |  | only a minor effect | no significant effect |  |  | 14%±4.0% | no effect | 48%±4.0% | 31%±8.4% |  | ~6.1 |  | 5.87±0.06 | 6.22±0.02 | markedly reduce the pH; also recorded: dropped the pH | 100.2%±0.9% | 70
